Data reported in patent US20090215752A1, “Compounds, preparation and therapeutic use thereof” (priority 2005, published 2009).

How the values were obtained:
PDE3 = molecular target: T1, PDE3 (Bos taurus, UniProt A0A3Q1M1E8); experiment: Selectivity: inhibition of PDE3 (radioenzymatic assay); type: biochemical, bovine; conditions: Table 2; 10 μM compound; read-out: PDE3 percentage inhibition at 10 μM
T1 sequence (A0A3Q1M1E8 1-1126): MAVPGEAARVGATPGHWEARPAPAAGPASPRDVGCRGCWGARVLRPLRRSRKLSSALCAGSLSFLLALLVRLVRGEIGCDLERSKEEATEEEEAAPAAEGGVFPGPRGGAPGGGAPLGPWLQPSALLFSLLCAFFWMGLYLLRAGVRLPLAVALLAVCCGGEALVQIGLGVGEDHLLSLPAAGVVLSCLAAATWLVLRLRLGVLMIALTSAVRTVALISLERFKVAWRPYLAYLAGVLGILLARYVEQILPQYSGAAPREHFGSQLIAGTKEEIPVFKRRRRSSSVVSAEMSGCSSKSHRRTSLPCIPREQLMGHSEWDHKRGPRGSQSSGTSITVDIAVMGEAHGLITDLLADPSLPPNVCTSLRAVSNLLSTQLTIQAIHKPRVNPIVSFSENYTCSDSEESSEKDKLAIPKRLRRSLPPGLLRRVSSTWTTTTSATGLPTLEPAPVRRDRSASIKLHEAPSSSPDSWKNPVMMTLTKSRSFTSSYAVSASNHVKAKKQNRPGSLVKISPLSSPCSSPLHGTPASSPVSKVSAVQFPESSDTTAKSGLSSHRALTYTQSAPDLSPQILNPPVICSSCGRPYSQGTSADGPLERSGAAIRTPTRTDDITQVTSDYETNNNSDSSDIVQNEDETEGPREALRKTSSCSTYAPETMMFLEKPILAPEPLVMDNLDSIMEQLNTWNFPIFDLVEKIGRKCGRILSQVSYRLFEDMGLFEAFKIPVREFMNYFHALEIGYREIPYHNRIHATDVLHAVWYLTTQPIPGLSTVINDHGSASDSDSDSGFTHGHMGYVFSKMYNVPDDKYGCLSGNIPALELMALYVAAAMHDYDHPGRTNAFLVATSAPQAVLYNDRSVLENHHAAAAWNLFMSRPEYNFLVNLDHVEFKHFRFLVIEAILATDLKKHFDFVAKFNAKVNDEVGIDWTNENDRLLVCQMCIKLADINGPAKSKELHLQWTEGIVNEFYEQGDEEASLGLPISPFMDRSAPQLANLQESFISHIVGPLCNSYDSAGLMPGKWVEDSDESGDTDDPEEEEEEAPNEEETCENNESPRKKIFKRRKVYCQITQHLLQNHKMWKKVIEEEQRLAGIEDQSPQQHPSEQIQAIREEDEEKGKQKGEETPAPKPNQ
Description: 2.1.1. Isolation of Phosphodiesterases from Smooth Muscle A 3 g segment of bovine aortic media cut into pieces with scissors was homogenized with an ultra-turrax then a potter glass/glass homogenizer in 7 volumes by weight of buffer A containing a protease inhibitor cocktail (20 mM Tris-HCl, 0.25 M saccharose, 2 mM magnesium acetate, 1 mM dithiothreitol, 5 mM EGTA, 2000 U/ml aprotinin, 10 mg/l leupeptin and 10 mg/l soya trypsic inhibitor). The homogenizate was centrifuged at 105,000 g for 1 hour. The supernatant was loaded on a DEAE-Sephacel column (15×1.6 cm) pre-equilibrated with buffer B (buffer A without the saccharose, EGTA and protease inhibitors). The column was washed until there was no detectable absorption at 280 nm, then eluted with a linear gradient of NaCl (0-0.5 M) in buffer B. 3-ml fractions were collected and enzyme activity was determined under the conditions described hereinbelow to localize the different enzymes PDE1, PDE3, PDE4 and PDE5 which were aliquoted and frozen at −80° C. (Lugnier et al., Biochem. Phamacol., 1986, 35: 1746-1751). […]
Cyclic nucleotide phosphodiesterase activity was determined by a radioenzymatic method using tritium-labelled cyclic GMP or AMP (1 μM) as substrate (Lugnier et al., 1986). ^3H-labelled adenosine or guanosine monophosphate formed by hydrolysis of the radiolabelled cyclic nucleotide was then converted to ^3H-labelled adenosine or guanosine in a second reaction with one nucleotidase in excess. […] Nucleoside radioactivity was determined by liquid scintillation counting. […]
(§1) The activity of the compounds was evaluated on other phosphodiesterase isoforms, particularly basal state or calmodulin-activated PDE1 from vascular smooth muscle, PDE3, PDE4 and PDE5 from vascular smooth muscle. The results obtained are presented in Tables 1 and 2 hereinbelow and are expressed as the percentage inhibition of enzymatic activity produced by […] of the test compound.

PDE4 = experiment: Selectivity: inhibition of PDE4 (radioenzymatic assay); type: biochemical, bovine; conditions: Table 2
Description: 2.1.1. Isolation of Phosphodiesterases from Smooth Muscle A 3 g segment of bovine aortic media cut into pieces with scissors was homogenized with an ultra-turrax then a potter glass/glass homogenizer in 7 volumes by weight of buffer A containing a protease inhibitor cocktail (20 mM Tris-HCl, 0.25 M saccharose, 2 mM magnesium acetate, 1 mM dithiothreitol, 5 mM EGTA, 2000 U/ml aprotinin, 10 mg/l leupeptin and 10 mg/l soya trypsic inhibitor). The homogenizate was centrifuged at 105,000 g for 1 hour. The supernatant was loaded on a DEAE-Sephacel column (15×1.6 cm) pre-equilibrated with buffer B (buffer A without the saccharose, EGTA and protease inhibitors). The column was washed until there was no detectable absorption at 280 nm, then eluted with a linear gradient of NaCl (0-0.5 M) in buffer B. 3-ml fractions were collected and enzyme activity was determined under the conditions described hereinbelow to localize the different enzymes PDE1, PDE3, PDE4 and PDE5 which were aliquoted and frozen at −80° C. (Lugnier et al., Biochem. Phamacol., 1986, 35: 1746-1751). PDE2 was isolated from human platelets, provided by Etablissement Français du Sang-Alsace, according to Kameni Tcheudji J F et al., (J. Mol. Biol. 2001; 310: 181-791), and stored until use at −80° C. in small aliquots.
Cyclic nucleotide phosphodiesterase activity was determined by a radioenzymatic method using tritium-labelled cyclic GMP or AMP (1 μM) as substrate (Lugnier et al., 1986). ^3H-labelled adenosine or guanosine monophosphate formed by hydrolysis of the radiolabelled cyclic nucleotide was then converted to ^3H-labelled adenosine or guanosine in a second reaction with […] in excess. The nucleoside formed was separated from the nucleotides by anion exchange chromatography. Nucleoside radioactivity was determined by liquid scintillation counting. Enzymatic incubations were carried out under conditions allowing no more than 15% hydrolysis of the substrate; each point was performed in duplicate.
as §1

σ receptors = experiment: Isolated organ bioassay, field-stimulated vas deferens: test for antagonist activity; parameters: species or system guinea pig; conditions: mean, n=2
Description: Segments of guinea pig vas deferens were suspended in 20-ml organ baths containing an oxygenated (95% O2 and 5% CO2) and pre-warmed (37° C.) physiological salt solution of the following composition (in mM): NaCl 118.0, KCl 4.7, MgSO4 1.2, CaCl2 2.5, KH2PO4 1.2, NaHCO3 25.0 and glucose 11.0 (pH 7.4). Yohimbine (1 μM), (−) sulpiride (1 μM), atropine (1 μM) and naloxone (1 μM) were also present throughout the experiments to block the α2-adrenergic, dopamine D2, muscarinic and opioid receptors, respectively. The tissues were connected to force transducers for isometric tension recordings. They were stretched to a resting tension of 0.5 g, allowed to equilibrate for at least 30 min during which time they were washed repeatedly and the tension readjusted. Thereafter, they were stimulated electrically using a constant current stimulator.
The tissues were exposed to a submaximal concentration of the reference agonist (+) SKF-10047 (100 μM) to obtain a control response. After stabilization of the (+) SKF-10047-induced response, increasing concentrations of substance or the reference antagonist rimcazole were added cumulatively. Each concentration was left in contact with the tissues until a stable response was obtained or for a maximum of 15 min. If it occurred, an inhibition of the (+) SKF-10047-induced increase in twitch contraction amplitude by substance indicated an antagonist activity at the σ receptors.
The parameter measured was the maximum change in the twitch contraction amplitude induced by each compound concentration. The results are expressed as a percent variation of the control twitch contraction amplitude (mean values). The effects of substance tested at 1.0 10^−6 M, 3.0 10^−6 M and 1.0 10^−5 M for agonist and antagonist activities at the σ receptors in the guinea pig vas deferens bioassay are summarized in Tables 6-7 where those of the reference compounds are also reported.

With `COc1cc2c(c(OC)c1-c1ccccc1)C(c1cccc(C(N)=O)c1)=NCC(=O)N2C` [Compound 17, 3-(6,8-Dimethoxy-1-methyl-2-oxo-7-phenyl-2,3-dihydro-1H-benzo[e][1,4]diazepin-5-yl)-benzamide] the inhibition at 10 µM (PDE3) was 20%, the “PDE4 percentage inhibition at 10 μM” value (PDE4; 10 μM compound) was 23% and the IC50 (PDE4; value in square brackets) was 47 µM. The “Response to (+)SKF-10,047 (1.0 10^−4 M) in the presence of the compound” value (“Response to (+)SKF-10,047 (1.0 10^−4 M)” below) (σ receptors; compound 1.0 10^−5 M) was “+169%”, the “Response to (+)SKF-10,047 (1.0 10^−4 M)” value (σ receptors; compound 1.0 10^−6 M) was “+139%” and the “Response to (+)SKF-10,047 (1.0 10^−4 M)” value (σ receptors; compound 3.0 10^−6 M) was “+139%”.
